The record followed here is PubChem BioAssay (NCI).

Structures are written as SMILES.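 Step 1: Grow cells in 96-well plates. Step 2: Expose to compound for 48 hours at 5 concentrations. Step 3: Interpolate endpoints linearly; if unreached, use highest concentration. Here, GI50 denotes the concentration required for 50% inhibition of growth. TGI denotes the concentration required for complete inhibition of growth.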 Some results are limits rather than exact numbers.

Experiment in all cases: NCI-60 cell line screen, 48 h
The subject of test [1] is COLO 205 colon.
In test [2] the test system is HCT-116 colon.
Test [3] has as its system IGROV1 ovarian.
Test [4] concerns M14 melanoma.
Test [5] has as its system MALME-3M melanoma.
Test [6] relates to MOLT-4 leukemia.
Test [7] concerns NCI-H226 lung.
For test [8], the system named is NCI-H522 lung.
For test [9], the system named is SW-620 colon.

Turning to `Cc1cc(Nc2c3ccccc3nc3ccccc23)ccc1NS(C)(=O)=O`, the GI50 is 2.44 µM in test [1]; 3.12 µM in [2]; 3.07 µM in test [3]; 3.69 µM in [4]; 3.4 µM in [5]; 3.28 µM in test [6]. Further, the results for the GI50 in test [7], in [8] and in test [9] were 4.41 µM, 3.3 µM and 3.36 µM, respectively. Also, the TGI in [1] amounted to 6.35 µM; in test [2], 11.6 µM; in [3] it was 11 µM; in test [4], 14.1 µM; in test [5], 10.3 µM; in [6], 9.61 µM. Further, the TGI in test [7] turned out to be 22 µM; in test [8] it was 13.1 µM; in test [9], 15.9 µM.
As to `Cc1ccc(C2NC(=O)c3ccccc3N2)s1` (stereo not drawn), the TGI was above 100 µM in test [2]; above 100 µM in test [3]; above 100 µM in test [4]; above 100 µM in [5]; above 100 µM in test [6]; 18.6 µM in test [8]. For the same compound, the TGI in test [9] is above 100 µM.
As for `C#CCN(N=O)C(=O)NC(CCCNC(=O)OCc1ccccc1)C(=O)OCc1ccccc1` (stereo not drawn), the TGI in [1] was above 100 µM; in [2] it was above 100 µM; in [3], above 100 µM; in test [4], above 100 µM; in [5] it was above 100 µM; in test [6] it was 65.5 µM. Besides, the results for the TGI in test [7], in [8] and in test [9] were above 100 µM, 27.2 µM and above 100 µM, respectively.
Turning to `CC(=O)OC1CC2Oc3ccc(C)cc3C(C)(O2)C1=O` (stereo not drawn), the TGI in test [1], in [2], in test [3], in test [4], in test [5] and in test [6] was above 100 µM each time. Besides, the TGI in test [7], in test [8] and in test [9] was above 100 µM each time.
For `CC(=O)[O-].[Mn+3].[O-]c1ccccc1C=NCCN=Cc1ccccc1[O-]`, the GI50 in test [1] was above 100 µM; in test [2] it was 95.5 µM; in [3], above 100 µM; in [4] it was above 100 µM; in test [5], above 100 µM; in test [6], 25.7 µM. In addition, the GI50 was above 100 µM in [7], 16 µM in test [8] and above 100 µM in [9]. Besides, the TGI in test [1], in test [2], in test [3], in test [4], in test [5] and in test [6] was above 100 µM throughout. In addition, the TGI in test [7], in [8] and in test [9] was above 100 µM in each case.
With `COc1ccc(N/N=C(\CCN(C)C)c2ccccc2)cc1`, the TGI in [1] was 7.84 µM; in [2], 13.8 µM; in test [3] it was 17.8 µM; in test [4], 24.2 µM; in test [5] it was 35.2 µM; in test [6], 44 µM. The TGI in test [8] is 30 µM; in test [9], 10.9 µM.
Consider `CN(C)CCNC(=O)c1cccc2c(Nc3ccc(S(N)(=O)=O)cc3)c3ccccc3nc12`, for which the TGI was 1.75 µM in test [1]; 1.74 µM in [2]; 16 µM in test [3]; 5.72 µM in test [4]; 3.88 µM in test [5]; above 100 µM in test [6]. The figures for the TGI in test [7], in [8] and in test [9] were 3.05 µM, 2.8 µM and 1.96 µM, respectively.
As to `NC(=O)c1coc(C2OC(CO)C(O)C2O)n1` (stereo not drawn), the TGI in test [1], in test [2], in [3], in [4], in test [5] and in test [6] was above 100 µM in each case. Moreover, the TGI in [7], in [8] and in [9] was above 100 µM throughout.
`O=c1cc(-c2ccccc2)oc2cc(O)cc(O)c12`: the TGI in test [1] is 37.9 µM; in test [2], 50.9 µM; in test [4], 82.9 µM; in test [5], 51.8 µM; in [6], 61.1 µM; in [7], 58.1 µM. Moreover, in test [8], the TGI was found to be 33 µM.
Regarding `COc1ccc(Cc2cc3c(cc2OCC(=O)O)OCO3)cc1`, the TGI in [1], in test [2], in [3], in test [4], in test [5] and in test [6] was above 100 µM throughout. Further, the TGI in test [8] and in [9] was above 100 µM each time.
For the compound `O=C1c2ccccc2NC1(c1ccccc1)c1c(-c2ccccc2)[nH]c2ccccc12` (stereo not drawn), the TGI in test [1] was 35.3 µM; in [2] it was above 100 µM; in test [3], above 100 µM; in test [4], above 100 µM; in test [6], 20.6 µM; in test [9], above 100 µM.
Take `CN(C)CCSc1cccc(-c2cc(-c3cccc(SCCN(C)C)c3)nc(SCCN(C)C)n2)c1`: the TGI in test [2] was 2.95 µM; in test [3], 13.8 µM; in test [4], 2.99 µM; in test [5], 3.38 µM; in test [6], 4.66 µM; in test [8] it was 2.98 µM. The compound also returned a TGI in test [9] of 3.95 µM.
For `O=C(Nc1cccc(Cc2cccc(NC(=O)c3ccccc3)c2)c1)c1ccccc1`, the TGI in test [1] was above 100 µM; in test [2], above 100 µM; in test [3], above 100 µM; in test [4] it was above 100 µM; in test [5], 99.7 µM; in test [6], above 100 µM. In addition, the TGI in [7], in test [8] and in test [9] was above 100 µM each time.
For the compound `CC(=O)O[C@H]1CCC2[C@@H]3CCC4=C(O)C(=O)C(C#N)C[C@]4(C)C3CC[C@@]21C` (stereo partly drawn), the TGI was 84.4 µM in test [1]; above 100 µM in test [2]; above 100 µM in test [3]; above 100 µM in [4]; above 100 µM in test [5]; above 100 µM in [6]. Besides, the TGI in [7] and in [9] was above 100 µM in each case.
With `O=C(c1ccccc1)c1oc2ccc(Br)cc2c1-c1cnn(-c2ccccc2)c1`, the TGI in test [1], in test [3], in test [4], in test [5], in [6] and in test [8] was above 100 µM in each case.
